We go through eleven compounds from patent US5925769A, “Acetylenic 1,5-diarylpyrazoles as antiinflammatory agents” (Ortho Pharmaceutical, Corp., priority 1998, dated 1999).

Assay [1] concerns the target T1, Sheep seminal vesicle (SSV) cyclooxygenase (Ovis aries, UniProt P05979).
T1 construct: Sheep seminal vesicle (SSV) cyclooxygenase (95% pure); purchased Biomol (Plymouth Meeting, PA); host or cells: sheep seminal vesicle
T1 sequence (P05979 25-600): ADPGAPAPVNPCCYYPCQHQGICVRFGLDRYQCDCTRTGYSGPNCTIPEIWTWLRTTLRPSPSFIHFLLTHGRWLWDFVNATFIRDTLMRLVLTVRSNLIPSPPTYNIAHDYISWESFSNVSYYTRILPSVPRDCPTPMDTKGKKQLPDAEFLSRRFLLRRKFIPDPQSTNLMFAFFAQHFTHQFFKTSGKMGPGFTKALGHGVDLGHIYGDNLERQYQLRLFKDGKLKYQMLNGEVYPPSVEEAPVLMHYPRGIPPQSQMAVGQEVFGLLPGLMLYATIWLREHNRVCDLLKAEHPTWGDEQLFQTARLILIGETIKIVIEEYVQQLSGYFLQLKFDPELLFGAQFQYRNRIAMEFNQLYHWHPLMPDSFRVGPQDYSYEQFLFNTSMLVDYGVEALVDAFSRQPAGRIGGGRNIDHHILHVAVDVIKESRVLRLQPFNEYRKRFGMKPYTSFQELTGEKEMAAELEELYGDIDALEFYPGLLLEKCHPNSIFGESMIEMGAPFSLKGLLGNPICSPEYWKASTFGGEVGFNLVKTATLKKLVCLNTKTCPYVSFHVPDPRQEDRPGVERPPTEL
In words: Procedure I: inhibition of sheep seminal vesicle (SSV) cyclooxygenase. The class given is biochemical. To be noted: SSV cyclooxygenase; for IC50: read-out: Proc. I IC50. The protocol: Procedure I was used to determine the ability of the compounds to inhibit cyclooxygenase. […] The enzyme was divided into 200 μL aliquots, snap frozen with liquid N2, and stored at -70° C. until immediately prior to use. […] The tubes were mixed on a vortex shaker, preincubated for 5 min at 37° C. prior to the initiation of the reaction. The reaction was started by the addition of [^14 C]-arachidonic acid (1-^14 C-AA, Amersham, Arlington Heights, Ill.) in 10 μL of methanol. Tubes were again vortexed and incubated in a water bath for 20 minutes after which the tubes were removed and the reaction stopped by acidification with the addition of 1 mL 2M formic acid. Lipophilic products were extracted with 3 mL chloroform and concentrated to dryness under N2. Each pellet was reconstituted with 40 μL of chloroform and spotted on a Whatman Silicon thin-layer chromatography plate and developed in a chromatography tank containing A-9 solvent (11:5:2:1 V:V:VV, ethyl acetate:trimethyl-pentane:acetic acid:double distilled-H2 O). Radioactive cyclooxygenase products (prostaglandin D2, prostaglandin E2, etc.) were measured using a Bioscan System 200 Imaging Scanner. Inhibition of enzyme activity was calculated by comparing the areas under the curve produced in the presence or absence of test compound.

Assay [2] has as its target T2, CO (Rattus norvegicus, UniProt Q63921).
T2 construct: the supernatant was saved as the source of enzymes; endogenous in cells; host or cells: RBL-1 (rat basophilic leukemia) cells
T2 sequence (Q63921 27-602): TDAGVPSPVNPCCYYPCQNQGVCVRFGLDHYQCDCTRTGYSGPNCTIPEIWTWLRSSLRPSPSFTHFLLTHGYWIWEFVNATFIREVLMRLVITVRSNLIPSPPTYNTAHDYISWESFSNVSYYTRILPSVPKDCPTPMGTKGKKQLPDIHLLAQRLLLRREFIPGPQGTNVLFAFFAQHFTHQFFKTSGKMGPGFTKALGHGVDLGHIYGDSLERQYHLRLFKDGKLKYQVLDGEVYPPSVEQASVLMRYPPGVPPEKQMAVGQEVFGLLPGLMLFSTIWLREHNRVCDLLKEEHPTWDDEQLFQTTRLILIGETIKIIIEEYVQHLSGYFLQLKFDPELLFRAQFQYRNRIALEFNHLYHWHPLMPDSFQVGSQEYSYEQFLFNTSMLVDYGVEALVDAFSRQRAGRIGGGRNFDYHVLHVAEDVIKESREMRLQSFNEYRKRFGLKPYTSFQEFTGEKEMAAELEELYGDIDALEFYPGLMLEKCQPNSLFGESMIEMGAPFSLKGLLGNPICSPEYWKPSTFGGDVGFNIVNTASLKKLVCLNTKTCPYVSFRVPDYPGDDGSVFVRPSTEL
In words: Procedure II: CO activity in broken RBL-1 cells (homogenate supernatant). The format is biochemical. The settings on record: RBL-1 broken cell supernatant; for IC50: read-out: Proc. II CO IC50; for inhibition at 10 µM: 20 min, @ 10 .quadrature.M, read-out: Proc. II CO % inhibition. The protocol: (§1) Procedure II was used to assess LO and CO activity. Rat basophilic leukemia cells (RBL-1; 5×10^7 viable cells/mL) were disrupted by homogenization on ice (four 20 sec bursts) with a Brinkman polytron. […] The homogenate was then centrifuged at 9,220×g for 48 minutes at 4° C. The pellet was discarded and the supernatant was saved as the source of enzymes. The supernatant was pre-incubated for five minutes at 37° C. in the presence of 2 mM of CaCl2 and compound or vehicle (1% DMSO). The conversion of AA into products by CO and LO was initiated by adding 10 μL (50 μCi) of 1-^14 C-AA to each tube and incubated at 37° C. for 20 minutes. The reaction was stopped by adjusting the pH of each sample to 3 to 3.5 with 2M formic acid. Samples were extracted with three volumes of chloroform to isolate the products of 5-LO formed during the reaction. Fractions were dried under nitrogen, then resuspended in 40 μL of chloroform and spotted onto silica gel HL plates. The plates were developed in A-9 solvent. The dried plates were analyzed using a Bioscan Imaging TLC scanner to determine the percentage of radiolabelled AA converted to 5-HETE (LO product) in each sample. The percentage of inhibition was calculated by:
(§2) [1-(5-HETE test)]/5-HETE control×100=% inhibition
(§3) The IC50 was determined using a curve fit in Cricket Graph (Computer Associated), which provided the equation of the regressed line used in the calculation.

The target in assay [3] is T3, 5-LO (Rattus norvegicus, UniProt P12527).
T3 construct: the supernatant was saved as the source of enzymes; endogenous in cells; host or cells: RBL-1 (rat basophilic leukemia) cells
T3 sequence (P12527 1-673): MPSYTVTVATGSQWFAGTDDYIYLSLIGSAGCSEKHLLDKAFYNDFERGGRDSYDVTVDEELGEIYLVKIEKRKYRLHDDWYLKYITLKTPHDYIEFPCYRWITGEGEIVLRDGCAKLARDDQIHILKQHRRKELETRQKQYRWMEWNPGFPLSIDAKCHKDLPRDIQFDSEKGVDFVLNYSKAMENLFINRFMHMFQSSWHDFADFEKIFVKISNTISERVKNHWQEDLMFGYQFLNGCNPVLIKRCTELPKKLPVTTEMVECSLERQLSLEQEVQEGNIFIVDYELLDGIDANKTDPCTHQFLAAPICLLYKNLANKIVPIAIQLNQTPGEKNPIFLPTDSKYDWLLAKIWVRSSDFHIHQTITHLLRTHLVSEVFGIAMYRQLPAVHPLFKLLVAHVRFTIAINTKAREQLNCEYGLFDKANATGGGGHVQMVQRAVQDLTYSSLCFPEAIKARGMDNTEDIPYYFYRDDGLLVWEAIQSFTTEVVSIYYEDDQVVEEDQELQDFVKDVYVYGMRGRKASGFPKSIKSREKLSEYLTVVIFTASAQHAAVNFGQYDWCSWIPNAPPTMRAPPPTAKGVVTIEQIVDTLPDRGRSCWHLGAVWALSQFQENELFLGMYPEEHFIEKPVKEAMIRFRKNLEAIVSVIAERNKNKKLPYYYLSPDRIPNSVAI
As to the kind of experiment: Procedure II: 5-LO activity (5-HETE) in broken RBL-1 cells (homogenate supernatant). The format is biochemical. To be noted: RBL-1 broken cell supernatant; for IC50: read-out: Proc. II 5-LO IC50; for inhibition at 10 µM: 20 min, @ 10 .quadrature.M, read-out: Proc. II 5-LO % inhibition. As for the experimental part:
as §1, §2, §3

The target of assay [4] is T2, CO. In words: Procedure III: CO (PgD2) in intact RBL-1 cells. The class given is cell-based. The settings on record: calcium ionophore A 23187, read-out: Proc. III CO IC50. The protocol:
as §3
(§4) In Procedure III, the ability to inhibit 5-LO and CO in intact RBL-1 cells was also evaluated. […] Cells were collected by centrifugation, washed once in HBSS, and resuspended at a concentration of 1×10^5 cells/mL. Cells were incubated in the presence of vehicle or drug then centrifuged at 800×g for 10 minutes at 4° C. The supernatant was removed by aspiration and the cells were resuspended in 0.5 mL of HBSS. […] The conversion of AA to 5-LO products was initiated by the addition of 10 μL (50 μCi) of 1-^14 C-AA. Products were isolated by acidification and extraction, followed by thin layer chromatography analysis as described above. Radioactive areas corresponding to authentic 5-LO (5-HETE) and CO (PgD2) products were quantitated by the Bioscan 2000 Imaging System and the IC50 was calculated as above.

Assay [5] has as its target T3, 5-LO. In words: Procedure III: 5-LO (5-HETE) in intact RBL-1 cells. The format is cell-based. To be noted: calcium ionophore A 23187, read-out: Proc. III 5-LO IC50. The protocol:
as §3, §4

The IC50 is the concentration needed to halve the response being measured. Broadly, the inhibition is the share of the control response that was lost under treatment.

Regarding `COc1ccc(-n2nc(C#CC(C)N(O)C(=O)C(C)C)cc2-c2ccc(C)cc2)cc1` (stereo not shown) [Cpd 20, N-isobutyryl-N-(1-(1-(4-methoxyphenyl) -5(4-methylphenyl)pyrazol-3-yl)-1-butyn-3-yl)hydroxylamine], the IC50 in assay [1] is 390 nM; on CO [2], 40 nM; on 5-LO [3] it was 100 nM; at CO [4], 90 nM; on 5-LO [5], 5600 nM.
For the compound `COc1ccc(-n2nc(C#CC(C)N(O)C(=O)CCl)cc2-c2ccc(C)cc2)cc1` (stereo not shown) [Cpd 21, N-Chloroacetyl-N-(1-(1-(4-methoxyphenyl)-5-(4-methylphenyl)pyrazol-3-yl)-1-butyn-3-yl)hydroxylamine], the IC50 in assay [1] is 1200 nM; on CO [4], 360 nM; at 5-LO [5], 23600 nM. Further, the inhibition at 10 µM at CO [2] and at 5-LO [3] was 100% throughout.
For `CCOC(=O)CCC(=O)N(O)C(C)C#Cc1cc(-c2ccc(C)cc2)n(-c2ccc(OC)cc2)n1` (stereo not shown) [Cpd 22], the IC50 amounted to 2930 nM in assay [1], 10000 nM on CO [4] and 10100 nM at 5-LO [5]. The inhibition at 10 µM on CO [2] was 100%; at 5-LO [3], 97%.
For the compound `COc1ccc(-n2nc(C#CC(C)N(O)C(=O)C(F)(F)F)cc2-c2ccc(C)cc2)cc1` (stereo not shown) [Cpd 23, N-trifluoroacetyl-N-(1-(1-(4-methoxyphenyl)-5-(4-methylphenyl)pyrazol-3-yl)-1-butyn-3-yl)hydroxylamine], the IC50 was 420 nM in assay [1]; 50 nM at CO [2]; 1660 nM on 5-LO [3]; 190 nM at CO [4]; 23500 nM at 5-LO [5].
Consider `CCOC(=O)C(=O)N(O)C(C)C#Cc1cc(-c2ccc(C)cc2)n(-c2ccc(OC)cc2)n1` (stereo not shown) [Cpd 24], for which the inhibition at 10 µM in assay [1] (20 min, @ 10 .quadrature.M, read-out: Proc. I % inhibition) came out at 66%; at CO [2] it was 50%; on 5-LO [3] it was 71%. Further, the IC50 at CO [4] was determined as 3400 nM; at 5-LO [5] it was 8500 nM.
In the case of `COc1ccc(-n2nc(C#CC(C)N(O)C(=O)c3cccnc3)cc2-c2ccc(C)cc2)cc1` (stereo not shown) [Cpd 26], the IC50 in assay [1] is 6000 nM; on CO [4], 11500 nM; at 5-LO [5], 25400 nM. The inhibition at 10 µM on CO [2] worked out at 54%; at 5-LO [3], 88%.
On to `COC(=O)N(O)C(C)C#Cc1cc(-c2ccc(C)cc2)n(-c2ccc(OC)cc2)n1` (stereo not shown) [Cpd 27], for which the IC50 turned out to be 530 nM in assay [1]; 140 nM on CO [2]; 280 nM on 5-LO [3]; 490 nM on CO [4]; 7100 nM at 5-LO [5].
For `CCC(C#Cc1cc(-c2ccc(C)cc2)n(-c2ccc(OC)cc2)n1)N(O)C(C)=O` (stereo not shown) [Cpd 28, N-acetyl-N-(1-(1-(4-methoxyphenyl)-5-(4-methylphenyl)pyrazol-3-yl)-1-pentyn-3-yl)hydroxylamine], in that order: 430 nM, 10 nM, 70 nM, 220 nM and 10700 nM.
Take `CCc1ccc(-c2cc(C#CC(C)N(O)C(C)=O)nn2-c2ccc(OC)cc2)cc1` (stereo not shown) [Cpd 29, N-acetyl-N-(1-(5-(4-ethylphenyl)-1-(4-methoxyphenyl)pyrazol-3-yl)-1-butyn-3-yl)hydroxylamine]: the IC50 in assay [1] was found to be 2510 nM; on CO [2], 60 nM; at 5-LO [3], 270 nM; at CO [4] it was 340 nM; at 5-LO [5], 11900 nM.
With `CCc1ccc(-c2cc(C#CC(C)N(O)C(=O)C(C)C)nn2-c2ccc(OC)cc2)cc1` (stereo not shown) [Cpd 30, N-isobutyryl-N-(1-(5-(4-ethylphenyl)-1-(4-methoxyphenyl)pyrazol-3-yl)-1-butyn-3-yl)hydroxylamine], the IC50 in assay [1] came to 590 nM; at CO [4] it was 180 nM; at 5-LO [5], 13100 nM. Besides, the inhibition at 10 µM at CO [2] amounted to 73%; at 5-LO [3], 93%.
In the same order, the values of `CCc1ccc(-c2cc(C#CC(C)N(O)C(=O)CCl)nn2-c2ccc(OC)cc2)cc1` (stereo not shown) [Cpd 31] are 6100 nM, 1700 nM, 36800 nM, 86% and 100%.
